In patent publication US20180244611A1, “Modulators of the Cystic Fibrosis Transmembrane Conductance Regulator Protein and Methods of Use” (AbbVie S.à.r.l., priority 2017, published 2018):
pEC50: −log10 of the molar value.

Tests used:
F508delCFTR [1] = biological target: T1, F508delCFTR (Homo sapiens, UniProt P13569, DEL508-508); test: Cell Surface Expression-Horse Radish Peroxidase (CSE-HRP) assay, test compound without co-corrector; type: cell-based; details: for Emax: maximum at any tested concentration, normalized to positive control, without co-corrector; for pEC50: test compound without co-corrector;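 on Emax: percent of on-plate 2 µM positive control corrector response over DMSO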
T1 construct: expressed in transfected cells; host or cells: CFBE41o- human lung-derived epithelial cells (CFBE41o-F508delCFTR-HRP), doxycycline-inducible
Method in brief: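 Compound without co-corrector was tested at eight 3-fold concentrations, top 20 μM, for 18-24 h at 33° C on doxycycline-induced (0.5 μg/mL, 72 h) CFBE41o- F508delCFTR-HRP cells. After DPBS washes, luminol luminescence gave % activity relative to on-plate positive control minus DMSO; EC50 came from triplicate-plate sigmoidal fitting.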

F508delCFTR [2] = biological target: T1, F508delCFTR; test: Cell Surface Expression-Horse Radish Peroxidase (CSE-HRP) assay, test compound with co-corrector; type: cell-based; details: with 2 μM co-corrector; for Maximum % activity (with co-corrector): maximum at any tested concentration, normalized to positive control;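 on Maximum % activity (with co-corrector): percent of 2 µM positive control corrector over DMSO; co-corrector is that same compound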
Method in brief: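 Surface-expression read-out: luminol luminescence from an HRP tag in the fourth exofacial loop of F508delCFTR, in doxycycline-induced (0.5 μg/mL, 72 h) CFBE41o- cells. Compound plus 2 μM co-corrector added for 18-24 h at 33° C., 8-point 3-fold series up to 20 μM. EC50 from a sigmoidal fit with variable Hill slope, normalised to positive control, triplicate plates.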

T1 sequence (P13569 with tags, fused parts or gaps DEL508-508): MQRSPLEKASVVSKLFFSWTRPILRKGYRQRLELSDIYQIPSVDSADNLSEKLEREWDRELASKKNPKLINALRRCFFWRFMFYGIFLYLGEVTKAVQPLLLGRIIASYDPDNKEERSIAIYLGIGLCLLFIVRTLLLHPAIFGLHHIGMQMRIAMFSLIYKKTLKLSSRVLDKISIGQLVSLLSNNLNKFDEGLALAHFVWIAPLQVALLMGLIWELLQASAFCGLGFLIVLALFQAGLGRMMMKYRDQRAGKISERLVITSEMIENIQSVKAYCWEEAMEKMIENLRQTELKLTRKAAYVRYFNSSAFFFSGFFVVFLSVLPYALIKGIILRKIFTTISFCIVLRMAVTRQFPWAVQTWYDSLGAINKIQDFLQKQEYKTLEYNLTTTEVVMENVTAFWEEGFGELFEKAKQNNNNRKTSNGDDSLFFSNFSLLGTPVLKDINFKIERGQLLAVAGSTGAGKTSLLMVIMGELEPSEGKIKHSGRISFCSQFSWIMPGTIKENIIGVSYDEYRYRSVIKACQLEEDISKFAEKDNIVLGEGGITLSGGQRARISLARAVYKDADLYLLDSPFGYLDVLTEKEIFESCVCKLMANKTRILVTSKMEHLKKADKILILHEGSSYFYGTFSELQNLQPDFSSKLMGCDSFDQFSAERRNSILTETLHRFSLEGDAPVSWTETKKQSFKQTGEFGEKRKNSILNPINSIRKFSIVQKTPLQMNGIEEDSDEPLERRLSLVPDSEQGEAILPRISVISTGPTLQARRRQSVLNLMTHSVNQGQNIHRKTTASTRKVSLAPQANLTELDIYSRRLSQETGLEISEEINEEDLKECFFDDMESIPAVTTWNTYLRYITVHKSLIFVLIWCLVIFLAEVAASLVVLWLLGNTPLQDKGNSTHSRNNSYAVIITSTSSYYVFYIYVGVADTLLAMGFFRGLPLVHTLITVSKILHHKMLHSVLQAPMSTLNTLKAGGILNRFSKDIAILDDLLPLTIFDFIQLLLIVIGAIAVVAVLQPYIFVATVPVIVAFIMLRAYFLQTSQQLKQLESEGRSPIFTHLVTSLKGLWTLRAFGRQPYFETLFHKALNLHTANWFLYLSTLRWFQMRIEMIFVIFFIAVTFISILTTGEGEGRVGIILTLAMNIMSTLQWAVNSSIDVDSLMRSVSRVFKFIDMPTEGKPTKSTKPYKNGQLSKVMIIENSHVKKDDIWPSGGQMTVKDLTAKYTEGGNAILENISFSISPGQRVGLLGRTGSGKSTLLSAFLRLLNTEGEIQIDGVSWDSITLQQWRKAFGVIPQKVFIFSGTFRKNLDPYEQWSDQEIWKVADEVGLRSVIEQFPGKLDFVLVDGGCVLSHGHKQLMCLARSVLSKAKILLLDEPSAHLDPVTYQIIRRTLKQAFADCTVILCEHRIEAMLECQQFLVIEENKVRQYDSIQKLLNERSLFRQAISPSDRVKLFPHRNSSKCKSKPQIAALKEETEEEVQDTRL

Row | SMILES | Emax (F508delCFTR [1]) | pEC50 (F508delCFTR [1]) | Maximum % activity (with co-corrector) (F508delCFTR [2]) | pEC50 (F508delCFTR [2])
1 | Cc1ccc2c(c1)CCC2(C)C(=O)NS(=O)(=O)c1ccccc1C (stereo not drawn) [II-22] | 50 to 150% | 5.00 to 5.52 | ++ (≥150 and <350) | 5.00 to 5.52
2 | CCc1ccccc1S(=O)(=O)NC(=O)C1CCc2c(OC)cccc21 (stereo not drawn) [II-24] | < 50% | 5.00 to 5.52 | ++ (≥150 and <350) | 5.00 to 5.52
3 | CCc1ccccc1S(=O)(=O)NC(=O)C1CCc2c(Cl)cccc21 (stereo not drawn) [II-25] | 50 to 150% | 5.00 to 5.52 | ++ (≥150 and <350) | 5.00 to 5.52
4 | O=C(NS(=O)(=O)c1cccc(Cl)c1)C1CCc2c(Cl)cccc21 (stereo not drawn) [II-26] | < 50% | ≤ 5.00 | ++ (≥150 and <350) | 5.00 to 5.52
5 | O=C(NS(=O)(=O)c1ccc(Cl)cc1)C1CCc2c(Cl)cccc21 (stereo not drawn) [II-27] | < 50% | ≤ 5.00 | ++ (≥150 and <350) | 5.00 to 5.52
6 | O=C(NS(=O)(=O)c1ccccc1F)C1CCc2c(Cl)cccc21 (stereo not drawn) [II-28] | < 50% | 5.00 to 5.52 | ++ (≥150 and <350) | 5.00 to 5.52
7 | COc1cccc2c1CCC2C(=O)NS(=O)(=O)c1ccccc1Cl (stereo not drawn) [II-30] | < 50% | 5.00 to 5.52 | ++ (≥150 and <350) | 5.00 to 5.52
8 | COc1cccc2c1CCC2C(=O)NS(=O)(=O)c1ccccc1[N+](=O)[O-] (stereo not drawn) [II-31] | < 50% | 5.00 to 5.52 | ++ (≥150 and <350) | 5.00 to 5.52
9 | CCC1(C(=O)NS(=O)(=O)c2ccccc2C)CCc2c(Cl)cccc21 (stereo not drawn) [II-32] | < 50% | > 5.52 | ++ (≥150 and <350) | > 5.52
10 | Cc1ccccc1S(=O)(=O)NC(=O)C1CCc2c(Br)cccc21 (stereo not drawn) [II-33] | 50 to 150% | 5.00 to 5.52 | +++ (≥350) | 5.00 to 5.52
11 | Cc1ccccc1S(=O)(=O)NC(=O)C1CCc2c(C3=CCOCC3)cccc21 (stereo not drawn) [II-34] | < 50% | 5.00 to 5.52 | ++ (≥150 and <350) | 5.00 to 5.52
12 | Cc1ccccc1S(=O)(=O)NC(=O)C1CCc2c(C3CCC3)cccc21 (stereo not drawn) [II-35] | 50 to 150% | 5.00 to 5.52 | ++ (≥150 and <350) | 5.00 to 5.52
13 | COc1cccc2c1CCC2C(=O)NS(=O)(=O)c1ccccc1C(F)(F)F (stereo not drawn) [II-37] | < 50% | 5.00 to 5.52 | ++ (≥150 and <350) | 5.00 to 5.52
14 | COc1cccc2c1CCC2C(=O)NS(=O)(=O)c1ccccc1F (stereo not drawn) [II-38] | < 50% | ≤ 5.00 | ++ (≥150 and <350) | 5.00 to 5.52
15 | COc1cccc2c1CCC2C(=O)NS(=O)(=O)c1ccccc1Br (stereo not drawn) [II-39] | < 50% | 5.00 to 5.52 | ++ (≥150 and <350) | 5.00 to 5.52
16 | Cc1ccccc1S(=O)(=O)NC(=O)C1CCc2c(OC(C)C)cccc21 (stereo not drawn) [II-40] | 50 to 150% | 5.00 to 5.52 | ++ (≥150 and <350) | 5.00 to 5.52
17 | COc1ccc(Br)c2c1CCC2C(=O)NS(=O)(=O)c1ccccc1C (stereo not drawn) [II-41] | 50 to 150% | 5.00 to 5.52 | +++ (≥350) | 5.00 to 5.52
18 | COc1cc(-c2cccc3c2CCC3C(=O)NS(=O)(=O)c2ccccc2C)ccn1 (stereo not drawn) [II-42] | 50 to 150% | 5.00 to 5.52 | ++ (≥150 and <350) | 5.00 to 5.52

Row | SMILES | Emax (F508delCFTR [1]) | pEC50 (F508delCFTR [1]) | Maximum % activity (with co-corrector) (F508delCFTR [2]) | pEC50 (F508delCFTR [2])
19 | COc1cccc2c1CCCC2C(=O)NS(=O)(=O)c1cccc2cccnc12 (stereo not drawn) [II-43] | 50 to 150% | 5.00 to 5.52 | ++ (≥150 and <350) | 5.00 to 5.52
20 | COc1ccc2c(c1)CC[C@@]2(C)C(=O)NS(=O)(=O)c1cccc2ccccc12 [II-44] | 50 to 150% | 5.00 to 5.52 | +++ (≥350) | 5.00 to 5.52
21 | COc1ccc2c(c1)CC[C@]2(C)C(=O)NS(=O)(=O)c1cccc2ccccc12 [II-45] | ≥ 150% | 5.00 to 5.52 | +++ (≥350) | 5.00 to 5.52
22 | COc1cccc2c1CC[C@]2(C)C(=O)NS(=O)(=O)c1cccc2ccccc12 [II-46] | 50 to 150% | 5.00 to 5.52 | +++ (≥350) | 5.00 to 5.52
23 | COc1cccc2c1CC(C(=O)NS(=O)(=O)c1cccc3ccccc13)C2 (stereo not drawn) [II-48] | 50 to 150% | 5.00 to 5.52 | +++ (≥350) | 5.00 to 5.52
24 | CC1(C(=O)NS(=O)(=O)c2cccc3ccccc23)CCc2ccc(OC(F)(F)F)cc21 (stereo not drawn) [II-49] | ≥ 150% | 5.00 to 5.52 | +++ (≥350) | > 5.52
25 | O=C(NS(=O)(=O)c1cccc2ccccc12)C1CCCc2c(O)ccc(Br)c21 (stereo not drawn) [II-50] | < 50% | 5.00 to 5.52 | ++ (≥150 and <350) | 5.00 to 5.52
26 | COc1ccc2c(c1OC)CCCC2C(=O)NS(=O)(=O)c1cccc2ccccc12 (stereo not drawn) [II-51] | 50 to 150% | 5.00 to 5.52 | +++ (≥350) | 5.00 to 5.52
27 | O=C(NS(=O)(=O)c1cccc2ccccc12)C1CCCc2c1ccc1c2OCCO1 (stereo not drawn) [II-52] | 50 to 150% | 5.00 to 5.52 | +++ (≥350) | 5.00 to 5.52
28 | COc1cc2c(cc1OC)C(C(=O)NS(=O)(=O)c1cccc3ccccc13)CCC2 (stereo not drawn) [II-53] | 50 to 150% | 5.00 to 5.52 | +++ (≥350) | 5.00 to 5.52
29 | CCC1(C(=O)NS(=O)(=O)c2ccccc2Cl)CCc2c(Cl)cccc21 (stereo not drawn) [II-54] | < 50% | > 5.52 | ++ (≥150 and <350) | > 5.52
30 | CCC1(C(=O)NS(=O)(=O)c2ccccc2OC)CCc2c(Cl)cccc21 (stereo not drawn) [II-55] | < 50% | ≤ 5.00 | + (<150) | ≤ 5.00
31 | CCC1(C(=O)NS(=O)(=O)c2cc(C)ccc2C(C)C)CCc2c(Cl)cccc21 (stereo not drawn) [II-56] | < 50% | > 5.52 | ++ (≥150 and <350) | > 5.52
32 | CCC1(C(=O)NS(=O)(=O)c2cccc(Cl)c2COC)CCc2c(Cl)cccc21 (stereo not drawn) [II-57] | < 50% | > 5.52 | ++ (≥150 and <350) | > 5.52
33 | CCC1(C(=O)NS(=O)(=O)c2ccccc2F)CCc2c(Cl)cccc21 (stereo not drawn) [II-58] | < 50% | > 5.52 | ++ (≥150 and <350) | > 5.52
34 | CCC1(C(=O)NS(=O)(=O)c2ccccc2Oc2ccccc2)CCc2c(Cl)cccc21 (stereo not drawn) [II-59] | < 50% | > 5.52 | ++ (≥150 and <350) | > 5.52
35 | CCC1(C(=O)NS(=O)(=O)c2ccccc2OC(F)(F)F)CCc2c(Cl)cccc21 (stereo not drawn) [II-60] | < 50% | ≤ 5.00 | + (<150) | ≤ 5.00
36 | CCC1(C(=O)NS(=O)(=O)c2ccccc2OC(F)F)CCc2c(Cl)cccc21 (stereo not drawn) [II-61] | < 50% | ≤ 5.00 | + (<150) | ≤ 5.00
